Measured values published in US9695155B2, “Herbicidal substituted pyrimidinyloxy benzene compounds” (E. I. DU PONT DE NEMOURS AND COMPANY, priority 2013, dated 2017).

Key:
galium = assay: Test C postemergence; format: in vivo, Galium aparine; details: Galium, post-emergence
In short: (§1)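 Greenhouse herbicide screen. Pre: seeded loam/sand, sprayed at planting. Post: 1–4 leaf plants (2–18 cm) in peat-based mix. Formulation: solvent mixture + surfactant, non-phytotoxic. Readout: visual % control vs untreated, 13–15 d; dash = not tested.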

barnyardgrass [1] = assay: Test A preemergence; format: in vivo, Echinochloa crus-galli
In short: (§2)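 Greenhouse pot test, loam/sand soil. Formulation: non-phytotoxic solvent mix plus surfactant. Pre: directed spray onto soil after sowing. Post: plants at 1–2 leaf, 2–10 cm. Rated visually vs untreated controls at ~10 d, 0 (no effect) to 100 (complete control).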

sedge, umbrella = assay: Test B flooded paddy test; format: in vivo, Cyperus difformis; details: Cyperus difformis, Flood, 250 g ai/ha; 0 to 100 scale where 0 is no effect and 100 is complete control; read-out: Plant response rating, Sedge, Umbrella
In short: (§3)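 Visual ratings on a 0 to 100 scale, where 100 means complete control, compared treated plants with controls after 13 to 15 days in a greenhouse. Treatment went into paddy water 3 cm deep over the soil, applied to plants at the 2-leaf stage.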

rice = assay: Test B flooded paddy test; format: in vivo, Oryza sativa; details: Oryza sativa; Flood, 250 g ai/ha; 0 to 100 scale where 0 is no effect and 100 is complete control; read-out: Plant response rating, Rice
In short: as §3

blackgrass = assay: Test C postemergence; format: in vivo, Alopecurus myosuroides; details: Alopecurus myosuroides, post-emergence
In short: as §1

lambsquarters = assay: Test C postemergence; format: in vivo, Chenopodium album
In short: as §1

large (Lg) crabgrass [2] = assay: Test C postemergence; format: in vivo, Digitaria sanguinalis; details: Digitaria sanguinalis, post-emergence
In short: as §1

barnyardgrass [3] = assay: Test C postemergence; format: in vivo, Echinochloa crus-galli; details: Echinochloa crus-galli, post-emergence
In short: as §1

Italian ryegrass = assay: Test C postemergence; format: in vivo, Lolium multiflorum
In short: as §1

large (Lg) crabgrass [4] = assay: Test A postemergence; format: in vivo, Digitaria sanguinalis; details: Digitaria sanguinalis, post-emergence, 240 h, read-out: Plant response rating, Crabgrass, Large
In short: as §2

wheat = assay: Test A preemergence; format: in vivo, Triticum aestivum
In short: as §2

yellow nutsedge = assay: Test C postemergence; format: in vivo, Cyperus esculentus
In short: as §1

ragweed = assay: Test C postemergence; format: in vivo, Ambrosia elatior
In short: as §1

soybean = assay: Test C postemergence; format: in vivo, Glycine max
In short: as §1

pigweed = assay: Test A postemergence; format: in vivo, Amaranthus retroflexus; details: Amaranthus retroflexus, post-emergence, read-out: Plant response rating, Pigweed
In short: as §2

[5] = 31 g ai/ha, postemergence, visual rating, scale 0 to 100 (0 no effect, 100 complete control), 13 to 15 days
[6] = 125 g ai/ha, 0 to 100 scale, 0 no effect, 100 complete control
[7] = 500 g ai/ha, 0 to 100 scale where 0 is no effect and 100 is complete control

`N#Cc1cccc(Oc2ncc(Cl)cn2)c1-n1cc(OCC(F)(F)F)cn1` [Compound 274, 3-[(5-chloro-2-pyrimidinyl)oxy]-2-[4-(2,2,2-trifluoroethoxy)-1H-pyrazol-1-yl]benzonitrile] was tested, and the pest or weed control at 16 g/ha (galium; 16 g ai/ha, postemergence, 0 is no effect, 100 is complete control, read-out: Plant response rating (0 to 100), Galium) was 70%, the pest or weed control at 31 g/ha (galium; 31 g ai/ha, postemergence, visual rating, scale 0 to 100 (0 no effect, 100 complete control), 13 to 15 days, read-out: Galium plant response rating) was 80% and the pest or weed control at 125 g/ha (galium; 125 g ai/ha, postemergence, visual rating, scale 0 to 100 (0 no effect, 100 complete control), read-out: Plant response rating, Galium) was 98%. For the same compound, the pest or weed control at 62 g/ha (galium; Postemergence, 62 g ai/ha, scale 0 to 100 (0 no effect, 100 complete control), 13 to 15 days, read-out: Plant response rating, Galium) was 90%, the “Barnyardgrass plant response rating (0 to 100 scale, 0 is no effect, 100 is complete control)” value (barnyardgrass [1]; 125 g ai/ha) was 90 and the pest or weed control at 500 g/ha (barnyardgrass [1]; Echinochloa crus-galli, pre-emergence, 240 h, 500 g ai/ha, 0 to 100 scale where 0 is no effect and 100 is complete control, read-out: Barnyardgrass plant response rating) was 100%. It also gave a pest or weed control at 250 g/ha (sedge, umbrella) of 95%, a plant injury at 250 g/ha (rice) of 60% and a pest or weed control at 16 g/ha (blackgrass; 16 g ai/ha, postemergence, 0 is no effect, 100 is complete control, read-out: Plant response rating (0 to 100), Blackgrass) of 5%. It also gave a pest or weed control at 31 g/ha (blackgrass; 31 g ai/ha, postemergence, visual rating, scale 0 to 100 (0 no effect, 100 complete control), 13 to 15 days, read-out: Blackgrass plant response rating) of 5%, a pest or weed control at 125 g/ha (blackgrass; 125 g ai/ha, postemergence, visual rating, scale 0 to 100 (0 no effect, 100 complete control), read-out: Plant response rating, Blackgrass) of 20% and a pest or weed control at 62 g/ha (blackgrass; Postemergence, 62 g ai/ha, scale 0 to 100 (0 no effect, 100 complete control), 13 to 15 days, read-out: Plant response rating, Blackgrass) of 15%. The “Lambsquarters plant response rating” value (lambsquarters; [5]) was 95, the pest or weed control at 16 g/ha (lambsquarters; Chenopodium album, post-emergence, 16 g ai/ha, postemergence, 0 is no effect, 100 is complete control, read-out: Plant response rating (0 to 100), Lambsquarters) was 85% and the pest or weed control at 125 g/ha (lambsquarters; Chenopodium album, post-emergence, 125 g ai/ha, postemergence, visual rating, scale 0 to 100 (0 no effect, 100 complete control), read-out: Plant response rating, Lambsquarters) was 98%. For the same compound, the pest or weed control at 62 g/ha (lambsquarters; Chenopodium album, post-emergence, Postemergence, 62 g ai/ha, scale 0 to 100 (0 no effect, 100 complete control), 13 to 15 days, read-out: Plant response rating, Lambsquarters) was 95%, the pest or weed control at 16 g/ha (large (Lg) crabgrass [2]; 16 g ai/ha, postemergence, 0 is no effect, 100 is complete control, read-out: Plant response rating (0 to 100), Crabgrass, Large) was 5% and the pest or weed control at 31 g/ha (large (Lg) crabgrass [2]; 31 g ai/ha, postemergence, visual rating, scale 0 to 100 (0 no effect, 100 complete control), 13 to 15 days, read-out: Crabgrass, Large plant response rating) was 5%. For the same compound, the pest or weed control at 125 g/ha (large (Lg) crabgrass [2]; 125 g ai/ha, postemergence, visual rating, scale 0 to 100 (0 no effect, 100 complete control), read-out: Plant response rating, Crabgrass, Large) was 60%, the pest or weed control at 62 g/ha (large (Lg) crabgrass [2]; Postemergence, 62 g ai/ha, scale 0 to 100 (0 no effect, 100 complete control), 13 to 15 days, read-out: Plant response rating, Crabgrass, Large) was 30% and the pest or weed control at 16 g/ha (barnyardgrass [3]; 16 g ai/ha, postemergence, 0 is no effect, 100 is complete control, read-out: Plant response rating (0 to 100), Barnyardgrass) was 5%. It also gave a pest or weed control at 31 g/ha (barnyardgrass [3]; 31 g ai/ha, postemergence, visual rating, scale 0 to 100 (0 no effect, 100 complete control), 13 to 15 days, read-out: Barnyardgrass plant response rating) of 10%, a pest or weed control at 125 g/ha (barnyardgrass [3]; 125 g ai/ha, postemergence, visual rating, scale 0 to 100 (0 no effect, 100 complete control), read-out: Plant response rating, Barnyardgrass) of 15% and a pest or weed control at 62 g/ha (barnyardgrass [3]; Postemergence, 62 g ai/ha, scale 0 to 100 (0 no effect, 100 complete control), 13 to 15 days, read-out: Plant response rating, Barnyardgrass) of 10%. The “Ryegrass, Italian plant response rating” value (Italian ryegrass; [5]) was 5, the pest or weed control at 16 g/ha (Italian ryegrass; Lolium multiflorum, post-emergence, 16 g ai/ha, postemergence, 0 is no effect, 100 is complete control, read-out: Plant response rating (0 to 100), Ryegrass, Italian) was 5% and the pest or weed control at 125 g/ha (Italian ryegrass; Lolium multiflorum, post-emergence, 125 g ai/ha, postemergence, visual rating, scale 0 to 100 (0 no effect, 100 complete control), read-out: Plant response rating, Ryegrass, Italian) was 35%. For the same compound, the pest or weed control at 62 g/ha (Italian ryegrass; Lolium multiflorum, post-emergence, Postemergence, 62 g ai/ha, scale 0 to 100 (0 no effect, 100 complete control), 13 to 15 days, read-out: Plant response rating, Ryegrass, Italian) was 30%, the pest or weed control at 125 g/ha (large (Lg) crabgrass [4]; [6]) was 90% and the pest or weed control at 500 g/ha (large (Lg) crabgrass [4]; [7]) was 90%. For the same compound, the “Wheat plant response rating (0 to 100 scale)” value (wheat; 125 g ai/ha) was 40, the plant injury at 500 g/ha (wheat; Triticum aestivum, pre-emergence, 240 h, 500 g ai/ha, 0 to 100 scale where 0 is no effect and 100 is complete control, read-out: Wheat plant response rating) was 80% and the “Nutsedge, Yellow plant response rating” value (yellow nutsedge; [5]) was 5. The pest or weed control at 16 g/ha (yellow nutsedge; Cyperus, post-emergence, 16 g ai/ha, postemergence, 0 is no effect, 100 is complete control, read-out: Plant response rating (0 to 100), Nutsedge, Yellow) was 10%, the pest or weed control at 125 g/ha (yellow nutsedge; Cyperus, post-emergence, 125 g ai/ha, postemergence, visual rating, scale 0 to 100 (0 no effect, 100 complete control), read-out: Plant response rating, Nutsedge, Yellow) was 10% and the pest or weed control at 62 g/ha (yellow nutsedge; Cyperus, post-emergence, Postemergence, 62 g ai/ha, scale 0 to 100 (0 no effect, 100 complete control), 13 to 15 days, read-out: Plant response rating, Nutsedge, Yellow) was 20%. For the same compound, the “Ragweed plant response rating” value (ragweed; [5]) was 60, the pest or weed control at 16 g/ha (ragweed; Ambrosia artemisiifolia, post-emergence, 16 g ai/ha, postemergence, 0 is no effect, 100 is complete control, read-out: Plant response rating (0 to 100), Ragweed) was 50% and the pest or weed control at 125 g/ha (ragweed; Ambrosia artemisiifolia, post-emergence, 125 g ai/ha, postemergence, visual rating, scale 0 to 100 (0 no effect, 100 complete control), read-out: Plant response rating, Ragweed) was 75%. For the same compound, the pest or weed control at 62 g/ha (ragweed; Ambrosia artemisiifolia, post-emergence, Postemergence, 62 g ai/ha, scale 0 to 100 (0 no effect, 100 complete control), 13 to 15 days, read-out: Plant response rating, Ragweed) was 40%, the “Soybean plant response rating” value (soybean; [5]) was 70 and the Soybean plant response rating (crop injury, 0-100 scale) at 16 g/ha (soybean; Glycine max, post-emergence, 16 g ai/ha, postemergence, 0 is no effect, 100 is complete control) was 45%. The Soybean plant response rating (crop injury, 0-100 scale) at 125 g/ha (soybean; Glycine max, post-emergence, 125 g ai/ha, postemergence, visual rating, scale 0 to 100 (0 no effect, 100 complete control), read-out: Plant response rating, Soybean) was 98%, the Soybean plant response rating (crop injury, 0-100 scale) at 62 g/ha (soybean; Glycine max, post-emergence, Postemergence, 62 g ai/ha, scale 0 to 100 (0 no effect, 100 complete control), 13 to 15 days) was 90% and the pest or weed control at 125 g/ha (pigweed; [6]) was 100%. For the same compound, the pest or weed control at 500 g/ha (pigweed; [7]) was 100%.
